Columns and labels:
Pfu DNA polymerase = molecular target: T1, Pfu DNA polymerase (Pyrococcus furiosus, UniProt P61875); assay: Inhibition by aphidicolin of Pfu DNA polymerase; assay type: biochemical, Pyrococcus furiousus; conditions: 1.0 mM aphidicolin
T1 construct: purchased Stratagene
T1 sequence (P61875 1-775): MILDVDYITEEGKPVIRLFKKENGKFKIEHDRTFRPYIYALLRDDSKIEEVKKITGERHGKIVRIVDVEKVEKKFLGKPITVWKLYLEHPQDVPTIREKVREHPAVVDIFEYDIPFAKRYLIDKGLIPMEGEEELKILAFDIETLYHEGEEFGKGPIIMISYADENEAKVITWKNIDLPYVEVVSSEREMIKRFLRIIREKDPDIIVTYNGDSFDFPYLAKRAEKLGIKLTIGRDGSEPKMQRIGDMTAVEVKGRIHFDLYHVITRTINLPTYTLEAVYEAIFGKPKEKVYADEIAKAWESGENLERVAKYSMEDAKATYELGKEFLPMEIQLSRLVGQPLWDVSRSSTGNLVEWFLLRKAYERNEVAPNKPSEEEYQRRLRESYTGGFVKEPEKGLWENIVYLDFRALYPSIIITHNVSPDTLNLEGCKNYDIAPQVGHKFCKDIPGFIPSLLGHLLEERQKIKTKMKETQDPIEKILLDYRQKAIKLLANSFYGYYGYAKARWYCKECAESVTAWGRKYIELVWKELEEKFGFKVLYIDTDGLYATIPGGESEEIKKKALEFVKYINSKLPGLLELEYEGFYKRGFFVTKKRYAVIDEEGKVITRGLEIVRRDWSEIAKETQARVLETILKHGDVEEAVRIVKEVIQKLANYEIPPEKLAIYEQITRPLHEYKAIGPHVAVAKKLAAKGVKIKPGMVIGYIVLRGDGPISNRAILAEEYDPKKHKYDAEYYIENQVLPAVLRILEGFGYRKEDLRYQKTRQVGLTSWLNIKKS
Method: (§1) In order to compare the modes of inhibition by inhibitors, the modes of inhibition of the DNA polymerase of the present invention and an α-type DNA polymerase derived from Pyrococcus furiousus (Pfu DNA polymerase, manufactured by Stratagene), a known DNA polymerase, were compared using a specific inhibitor of α-type DNA polymerases, aphidicolin. The activity changes were examined, while the aphidicolin concentration was increased from 0 to 2.0 mM in the presence of 20 mM Tris-HCl, pH 7.7, 15 mM MgCl2, 2 mM 2-mercaptoethanol, 0.2 mg/ml activated DNA, and 40 μM each of dATP, dGTP, dCTP and dTTP.

[1] = molecular target: T2, DNA polymerase of the present invention (Pyrococcus furiosus, UniProt P81409); assay: Inhibition by aphidicolin of the DNA polymerase of the present invention; assay type: biochemical; conditions: 2.0 mM aphidicolin
T2 construct: made in house; host or cells: Escherichia coli JM109 carrying pFU1001 (genomic XbaI-XbaI fragment in pTV118N)
T2 sequence (P81409 1-1263): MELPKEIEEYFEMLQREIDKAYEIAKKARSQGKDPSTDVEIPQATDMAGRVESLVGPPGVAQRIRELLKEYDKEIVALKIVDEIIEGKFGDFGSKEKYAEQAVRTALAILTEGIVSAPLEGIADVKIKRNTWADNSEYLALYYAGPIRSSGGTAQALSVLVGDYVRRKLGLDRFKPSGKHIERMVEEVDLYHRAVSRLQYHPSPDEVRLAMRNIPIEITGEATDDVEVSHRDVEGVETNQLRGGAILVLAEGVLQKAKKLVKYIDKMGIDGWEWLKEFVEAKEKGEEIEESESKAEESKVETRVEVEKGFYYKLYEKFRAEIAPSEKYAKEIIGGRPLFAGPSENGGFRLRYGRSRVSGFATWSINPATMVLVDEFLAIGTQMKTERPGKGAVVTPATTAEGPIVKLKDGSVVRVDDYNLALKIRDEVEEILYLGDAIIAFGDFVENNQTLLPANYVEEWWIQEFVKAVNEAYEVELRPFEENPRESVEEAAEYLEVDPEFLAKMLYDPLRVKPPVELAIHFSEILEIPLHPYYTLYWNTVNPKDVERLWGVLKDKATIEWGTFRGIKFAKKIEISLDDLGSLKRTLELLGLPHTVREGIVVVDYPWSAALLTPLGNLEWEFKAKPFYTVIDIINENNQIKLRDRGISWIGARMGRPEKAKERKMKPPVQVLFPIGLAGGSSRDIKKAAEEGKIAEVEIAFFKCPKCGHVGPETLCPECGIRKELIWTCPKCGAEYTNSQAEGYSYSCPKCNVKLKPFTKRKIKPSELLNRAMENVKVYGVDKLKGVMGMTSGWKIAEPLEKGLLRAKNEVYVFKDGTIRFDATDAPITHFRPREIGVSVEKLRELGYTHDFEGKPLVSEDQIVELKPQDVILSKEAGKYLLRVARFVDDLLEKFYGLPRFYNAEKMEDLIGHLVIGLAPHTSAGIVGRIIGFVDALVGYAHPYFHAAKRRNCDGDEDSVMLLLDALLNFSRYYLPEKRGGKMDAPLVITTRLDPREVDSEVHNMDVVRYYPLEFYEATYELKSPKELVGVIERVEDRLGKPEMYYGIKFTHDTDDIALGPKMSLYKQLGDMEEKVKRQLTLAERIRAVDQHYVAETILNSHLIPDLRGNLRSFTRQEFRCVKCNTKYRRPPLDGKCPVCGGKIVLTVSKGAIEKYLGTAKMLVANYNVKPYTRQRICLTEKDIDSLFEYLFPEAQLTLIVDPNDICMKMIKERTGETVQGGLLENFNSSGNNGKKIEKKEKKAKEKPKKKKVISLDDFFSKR
T2 sequence (P81412 1-613 partner): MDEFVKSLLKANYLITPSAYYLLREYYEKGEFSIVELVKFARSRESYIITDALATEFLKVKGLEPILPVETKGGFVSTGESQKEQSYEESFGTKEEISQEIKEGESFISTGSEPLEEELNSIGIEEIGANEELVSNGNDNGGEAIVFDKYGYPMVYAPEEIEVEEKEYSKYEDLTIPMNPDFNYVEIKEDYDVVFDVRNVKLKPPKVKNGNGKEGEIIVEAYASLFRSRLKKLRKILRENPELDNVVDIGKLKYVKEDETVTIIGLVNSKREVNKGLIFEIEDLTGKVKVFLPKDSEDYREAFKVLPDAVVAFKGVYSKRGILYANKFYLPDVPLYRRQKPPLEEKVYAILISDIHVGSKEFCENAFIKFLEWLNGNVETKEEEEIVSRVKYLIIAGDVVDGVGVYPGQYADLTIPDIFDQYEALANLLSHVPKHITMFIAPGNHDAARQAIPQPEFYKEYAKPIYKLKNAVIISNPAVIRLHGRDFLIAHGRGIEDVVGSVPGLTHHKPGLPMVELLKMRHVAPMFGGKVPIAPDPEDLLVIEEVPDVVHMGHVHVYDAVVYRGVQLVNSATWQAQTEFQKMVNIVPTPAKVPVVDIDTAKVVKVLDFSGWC
Method: as §1

## C[C@@]1(CO)[C@H](O)CC[C@@]2(C)[C@H]1CC[C@H]1C[C@@H]3C[C@@]12CC[C@]3(O)CO [aphidicolin]
Pfu DNA polymerase
  activity of the Pfu DNA polymerase relative to the original activity: 20%
[1]
  inhibition of the DNA polymerase of the present invention: not inhibited at all

— patent US6395526B1, “DNA polymerase” (Takara Shuzo Co., Ltd., priority 1995, dated 2002)
